One data set in a line: rat PO PK study. The class given is in vivo. Particulars: male, Sprague-Dawley, 3 mg/kg PO. Here is the method: Plasma and brain tissue samples originating from in vivo studies were analyzed by electrospray ionization using an AB Sciex Q-TRAP 5500 (Foster City, CA) that was coupled to a Shimadzu LC-20AD pump (Columbia, MD) and a Leap Technologies CTC PAL auto-sampler (Carrboro, NC). Analytes were separated by gradient elution using a C18 column (3 x 50 mm, 3 mm; Fortis Technologies Ltd, Cheshire, UK) that was thermostated at 40 °C. HPLC mobile phase A was 0.1% formic acid in water (pH unadjusted); mobile phase B was 0.1% formic acid in acetonitrile (pH […]
min, with an isocratic hold for 0.5 min, before transitioning to 10% B over 0.05 min. The column was re-equilibrated (1 min) before the next sample injection. The total run time was 2.55 min, and the HPLC flow rate was 0.5 ml/min. The source temperature was set at 500 °C, and mass spectral analyses were performed using a Turbo-Ion spray source in positive ionization mode (5.0-kV spray voltage) and using multiple-reaction monitoring of transitions specific for the analytes. All data were analyzed using AB Sciex Analyst 1.5.1 software.
Brain plasma concentration ratio (Kp) was calculated by dividing brain concentration by plasma concentration for each animal. Unbound brain to unbound plasma concentration ratio (Kp,uu) is calculated using the following formula: Kp,uu = (Brain ng/g x brain fu)/(plasma ng/ml x plasma fu).
For determination of the plasma concentration-time profile, compounds were formulated in methyl cellulose and administered as a 3 mg/kg PO dose to male C57BL/6 mouse or SD rat (n = 2). For the same determination, compounds were formulated in HP-β-CD and administered as a 0.1 mg/kg IV dose to male beagle dog (n = 2).
Plasma samples originating from in vivo studies were analyzed by electrospray ionization using a Q-TRAP 5500 (AB Sciex) that was coupled to a Prominence UFLC XR (Shimadzu Corporation).
Analytes were separated by gradient elution using a Shim-pack XR-ODS II (2 x 75 mm, 2.2μm, Shimadzu Corporation) that was thermostated at 40 °C. HPLC mobile phase A was 5 mM ammonium acetate containing 0.2% formic acid in water (pH unadjusted); mobile phase B was […]
hold for 1.5 min, before transitioning to 10% B over 0.1 min. The column was re-equilibrated (0.9 min) before the next sample injection. The total run time was 4.0 min, and the HPLC flow rate was 0.5 ml/min. The source temperature was set at 600 °C, and mass spectral analyses were performed using a Turbo-Ion spray source in positive ionization mode and using multiple-reaction

The subject of data set [1] is 72 GPCRs, ion channels and transporters. Kind of data set: Eurofins Lead Profiling panel (whole panel). The format is binding. The note with it: for ancillary pharmacology panel result: 72 GPCRs, ion channels and transporters.
In a further data set the target is Adenosine A1 (Homo sapiens, UniProt P30542). The data set can be described thus: Eurofins Lead Profiling radioligand binding. Particulars: title: 30 μM.
Adenosine A1, sequence (P30542 whole entry): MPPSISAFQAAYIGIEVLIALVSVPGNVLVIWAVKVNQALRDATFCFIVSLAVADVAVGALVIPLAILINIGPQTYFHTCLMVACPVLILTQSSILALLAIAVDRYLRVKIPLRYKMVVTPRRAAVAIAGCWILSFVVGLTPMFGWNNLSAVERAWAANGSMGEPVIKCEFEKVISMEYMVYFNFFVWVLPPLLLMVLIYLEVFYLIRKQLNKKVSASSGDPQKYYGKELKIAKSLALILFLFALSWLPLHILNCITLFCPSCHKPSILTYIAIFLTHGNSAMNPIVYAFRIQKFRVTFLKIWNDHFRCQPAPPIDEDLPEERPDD
The target of the next data set is Adrenergic β1 (Homo sapiens, UniProt P08588). Kind of data set: Eurofins Lead Profiling radioligand binding. The note with it: title: 30 μM.
Adrenergic β1, sequence (P08588 whole entry): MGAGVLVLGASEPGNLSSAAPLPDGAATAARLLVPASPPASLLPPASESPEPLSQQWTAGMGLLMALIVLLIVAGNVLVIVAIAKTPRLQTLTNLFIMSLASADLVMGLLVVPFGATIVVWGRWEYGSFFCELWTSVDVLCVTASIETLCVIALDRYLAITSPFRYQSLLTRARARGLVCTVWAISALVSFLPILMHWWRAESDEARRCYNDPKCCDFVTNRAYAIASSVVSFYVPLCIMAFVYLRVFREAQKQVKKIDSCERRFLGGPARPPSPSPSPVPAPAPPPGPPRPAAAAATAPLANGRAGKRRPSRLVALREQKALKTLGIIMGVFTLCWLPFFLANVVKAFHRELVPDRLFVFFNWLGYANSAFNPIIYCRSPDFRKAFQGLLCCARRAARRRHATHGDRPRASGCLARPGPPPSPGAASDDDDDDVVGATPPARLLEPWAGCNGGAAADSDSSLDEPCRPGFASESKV
A further data set addresses Bradykinin B2 (Homo sapiens, UniProt P30411). Kind of data set: Eurofins Lead Profiling radioligand binding. The note with it: title: 30 μM.
Another data set concerns the target Histamine H1 (Homo sapiens, UniProt P35367). Kind of data set: Eurofins Lead Profiling radioligand binding. The note with it: title: 30 μM.
For a further data set, the target named is T1, hCav1.2 (Homo sapiens, UniProt Q13936).
T1 construct: host or cells: CHO
Kind of data set: Cav1.2 calcium flux assay. The class given is cell-based. The note with it: Ca2+ flux assay. Here is the method: % inhibition = 100 - (ΔRatio of test compound - ΔRatio of 1 µM control compound)/(ΔRatio of 0.3% DMSO - ΔRatio of 1 µM control compound)x100
Cav1.2 calcium flux assay protocol
CHO cells stably expressing human Cav1.2/b2/a2/d1 hCav1.2/CHO were purchased from ChanTest. hCav1.2/CHO were plated in 384-well plates at a density of 1.0x10^4 cells/well, and cultured overnight. After the wash by HBSS + 20 mM HEPES buffer, cells were loaded with Fluo-4 dye for 1 hour at room temperature. After the wash by HBSS + 20mM HEPES buffer, the fluorescent intensity was measured by Panoptic and test compounds, control compounds (verapamil) or 0.3% DMSO were added to each well. The change of fluorescent intensity (ΔRatio) and % inhibition to compare the efficacy and potency of test compounds were calculated using the […]
ΔRatio = (fluorescent intensity at 300 seconds after compound addition)/(average of fluorescent […]
% inhibition = 100 - (ΔRatio of test compound - ΔRatio of 10 µM control compound)/(ΔRatio of 0.3% DMSO - ΔRatio of 10 µM control compound)x100
In vitro Plasma protein binding and Brain homogenate binding: Determination of fraction unbound (f u) in plasma was conducted in vitro via equilibrium dialysis using HTDialysis (HTD) membrane plates. The top half of the plate was filled with 100 uL of Dubelco’s Phosphate Buffered Saline, pH 7.4 (DPBS). […]

Histamine H1, sequence (P35367 whole entry): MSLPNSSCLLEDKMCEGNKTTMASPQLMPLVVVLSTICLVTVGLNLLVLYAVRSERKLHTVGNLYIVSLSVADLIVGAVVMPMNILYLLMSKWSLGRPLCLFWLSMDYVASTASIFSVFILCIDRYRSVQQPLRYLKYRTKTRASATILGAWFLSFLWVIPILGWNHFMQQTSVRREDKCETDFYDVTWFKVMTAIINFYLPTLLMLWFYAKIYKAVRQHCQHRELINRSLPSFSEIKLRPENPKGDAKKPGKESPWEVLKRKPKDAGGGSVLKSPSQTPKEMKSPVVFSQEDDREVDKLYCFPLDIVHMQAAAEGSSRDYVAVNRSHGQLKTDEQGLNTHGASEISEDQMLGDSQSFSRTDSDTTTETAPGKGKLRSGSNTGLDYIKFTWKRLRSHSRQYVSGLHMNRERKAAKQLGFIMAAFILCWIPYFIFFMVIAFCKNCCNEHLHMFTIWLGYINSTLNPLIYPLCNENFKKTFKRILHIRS
Bradykinin B2, sequence (P30411 whole entry): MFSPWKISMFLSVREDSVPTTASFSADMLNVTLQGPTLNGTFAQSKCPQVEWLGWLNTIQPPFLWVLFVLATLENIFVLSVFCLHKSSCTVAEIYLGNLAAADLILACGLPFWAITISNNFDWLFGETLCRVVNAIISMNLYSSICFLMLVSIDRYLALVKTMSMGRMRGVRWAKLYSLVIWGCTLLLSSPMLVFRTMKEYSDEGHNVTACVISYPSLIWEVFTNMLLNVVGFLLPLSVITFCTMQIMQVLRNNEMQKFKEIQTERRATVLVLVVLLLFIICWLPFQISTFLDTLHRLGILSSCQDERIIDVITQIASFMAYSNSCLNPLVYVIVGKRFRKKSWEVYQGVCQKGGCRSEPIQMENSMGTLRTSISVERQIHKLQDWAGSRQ

On to `O=C(NCc1ccc(OC(F)(F)F)cc1F)c1ccc2ncnn2c1` [Compound 19b], for which the concentration at 2 h in the data set “rat PO PK study” (brain, 2 h, read-out: total brain concentration) turned out to be 2680 nM. Also, in the data set “rat PO PK study” (brain, 24 h, read-out: total brain concentration), the concentration at 24 h was found to be 2890 nM. Besides, the highest level in “rat PO PK study” (plasma) (Cmax) was 10.3 µM. Also, in “rat PO PK study” (plasma), the time of peak concentration (Tmax) (commonly the time from dosing to the highest level) was determined as 7 h. In “rat PO PK study” (plasma), the half-life (as a rule, how long it takes for the measured level to halve) is above 1440 min. Moreover, the “displacement of any radioligand in the panel” value in data set [1] (30 μM, 72 targets) was at most 50%. The “ancillary pharmacology panel result” value in data set [1] is on record as “clean ancillary pharmacology”; in data set [1] (listed as ONO-2920632), “no significant activity”. Also, the inhibition (in general, the percentage by which the read-out fell short of the control) on Adenosine A1 was determined as 14%; at Adrenergic β1 it was 9%; at Histamine H1, 8%. The same compound yielded an inhibition at 10 µM on Bradykinin B2 of 5%.

In the case of `O=C(NCc1ccc(OC(F)(F)F)cc1Cl)c1ccc2nncn2c1` [Compound 20], the IC50 (as a rule, the concentration that gives 50% inhibition) on hCav1.2 was above 30 µM.

The values above are taken from publication PMC11887051, “Discovery of ONO-2920632 (VU6011887): A Highly Selective and CNS Penetrant TREK-2 (TWIK-Related K+ Channel 2) Preferring Activator In Vivo Tool Compound” (ACS Chemical Neuroscience, 2025).
